Measured values published in the supplement of paper PMC10307832.

Columns and labels:
Experiment in all cases: relative viability (nuclei count vs DMSO), 5 days (fraction); higher = more cells survive
Bromopyruvate = compound: C(C(=O)C(=O)O)Br [Bromopyruvate]
Procedure, shortened: (§1)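 Lung cancer cell lines were seeded into 1536-well plates, kept overnight at 37 °C and pinned with five library-drug doses (not always all listed) spaced by √10. After 5 days, nuclei were Hoechst-stained, imaged at 4× and counted with MetaXpress. Viability is treated-well nuclei over vehicle-well nuclei, taken as a median across plates. Plates needed control CV below 25% and at least one doubling.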

Bicalutamide = compound: CC(O)(CS(=O)(=O)c1ccc(F)cc1)C(=O)Nc1ccc(C#N)c(C(F)(F)F)c1 [Bicalutamide]
Procedure, shortened: as §1

[1] = compound: C(C(=O)C(=O)O)Br [Bromopyruvate] + CC1(C)CCC(c2ccc(Cl)cc2)=C(CN2CCN(c3ccc(C(=O)NS(=O)(=O)c4ccc(N[C@H](CCN5CCOCC5)CSc5ccccc5)c(S(=O)(=O)C(F)(F)F)c4)cc3)CC2)C1 [Navitoclax] (partner 0.5 µM)
Procedure, shortened: (§2)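 Lung cancer cell lines were seeded in 1536-well plates and dosed by pin tool the next day, with either a single drug or a fixed anchor-drug dose combined with five library-drug doses (not always all listed) spaced in √10 steps. Five days later, one step fixed the cells and stained their nuclei (final 0.05% Triton X-100, 1% formaldehyde, 1 ug/ml Hoechst), and nuclei were counted on 4× images. Relative viability is the nuclei count in treated wells divided by the count in vehicle wells, and each value is the median of duplicate plates.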

[2] = compound: C(C(=O)C(=O)O)Br [Bromopyruvate] + COc1cc2c(Oc3ccc(NC(=O)C4(C(=O)Nc5ccc(F)cc5)CC4)cc3F)ccnc2cc1OCCCN1CCOCC1 [Foretinib] (partner 0.25 µM)
Procedure, shortened: as §2

Row | Cell Line | relative viability (Bromopyruvate; 1 µM) | relative viability (Bromopyruvate; 3.162 µM) | relative viability (Bromopyruvate; 10 µM) | relative viability (Bromopyruvate; 31.62 µM) | relative viability (Bromopyruvate; 100 µM) | relative viability (Bicalutamide; 0.08 µM) | relative viability (Bicalutamide; 0.253 µM) | relative viability (Bicalutamide; 0.8 µM) | relative viability (Bicalutamide; 2.53 µM) | relative viability ([1]; first compound 1 µM) | relative viability ([1]; first compound 3.162 µM) | relative viability ([1]; first compound 10 µM) | relative viability ([1]; first compound 31.62 µM) | relative viability ([1]; first compound 100 µM) | relative viability ([2]; first compound 1 µM) | relative viability ([2]; first compound 3.162 µM) | relative viability ([2]; first compound 10 µM) | relative viability ([2]; first compound 31.62 µM) | relative viability ([2]; first compound 100 µM)
1 | BEN | 1.07 | 0.949 | 0.971 | 0.951 | 0.934 | 1.01 | 0.876 | 1.34 | 1.03 | 0.0705 | 0.0702 | 0.072 | 0.0664 | 0.0566 | 0.975 | 0.668 | 0.542 | 0.741 | 0.591
2 | NCI-H1666 | 0.971 | 0.98 | 1.04 | 0.937 | 0.965 | 1.04 | 0.854 | 0.96 | 1.01 | 0.957 | 1.12 | 1.03 | 1.01 | 0.754 | 0.994 | 1.05 | 1.03 | 1 | 0.936
3 | LC-2-ad | 1.01 | 0.985 | 1.03 | 0.924 | 0.964 | 1.09 | 0.935 | 1.08 | 0.986 | 0.436 | 0.404 | 0.35 | 0.459 | 0.476 | 0.922 | 0.99 | 1.01 | 0.914 | 0.988
4 | SW 1573 | 1.03 | 0.995 | 1.13 | 0.925 | 0.385 | 1.02 | 0.757 | 1.15 | 0.969 | 0.927 | 1.17 | 1.02 | 1.11 | 0.487 | 0.741 | 0.845 | 0.982 | 0.996 | 0.868
5 | ChaGo-K-1 | 0.979 | 0.995 | 1.07 | 1 | 1.02 | 0.998 | 0.962 | 1.18 | 0.976 | 1.17 | 0.99 | 0.963 | 0.96 | 0.879 | 0.898 | 0.937 | 1.15 | 1.02 | 0.998
6 | COR-L 105 | 0.87 | 1.06 | 0.866 | 0.838 | 0.687 | 1.05 | 0.814 | 1.03 | 0.825 | 0.757 | 0.962 | 0.689 | 0.688 | 0.549 | 0.924 | 1.18 | 0.995 | 1.08 | 0.616
7 | NCI-H1975 | 1.02 | 0.962 | 1 | 0.939 | 0.906 | 0.935 | 0.942 | 0.998 | 0.775 | 1.18 | 1.26 | 1.08 | 1.31 | 0.994 | 0.988 | 1.1 | 1.03 | 0.972 | 0.927
8 | Calu-6 | 0.934 | 0.995 | 1.12 | 0.994 | 0.809 | 1.09 | 0.989 | 1.07 | 0.987 | 0.939 | 0.922 | 0.779 | 0.792 | 0.74 | 0.9 | 0.891 | 0.938 | 0.856 | 0.613
9 | NCI-H2009 | 0.975 | 1.04 | 0.96 | 0.925 | 0.734 | 1.11 | 1.05 | 1.04 | 0.927 | 1.15 | 1.26 | 1.22 | 1.06 | 0.899 | 1.22 | 1.25 | 1.19 | 1.2 | 0.883
10 | SK-LU-1 | 1.07 | 0.93 | 1.2 | 0.935 | 0.943 | 1.11 | 1.02 | 1.23 | 1.02 | 0.866 | 0.971 | 0.935 | 0.734 | 0.574 | 0.846 | 0.867 | 0.954 | 0.671 | 0.799
11 | NCI-H2347 | 1.06 | 0.956 | 1.01 | 0.837 | 1.03 | 1.1 | 0.913 | 1.19 | 1.03 | 0.714 | 0.742 | 1.13 | 0.553 | 0.778 | 0.925 | 1.01 | 1.22 | 0.721 | 0.982
12 | HCC-366 | 0.996 | 0.979 | 1.05 | 1.02 | 0.998 | 1.01 | 0.95 | 1.06 | 1.01 | 1.04 | 1.05 | 1.14 | 1.04 | 1.03 | 0.927 | 0.976 | 0.961 | 0.759 | 0.963
13 | EMC-BAC-2 | 0.982 | 0.933 | 0.986 | 0.804 | 1.01 | 1.03 | 0.894 | 1.05 | 0.822 | 1.02 | 1.17 | 1.31 | 1.15 | 1.25 | 0.964 | 0.979 | 1.06 | 0.933 | 1.1
14 | NCI-H3122 | 0.992 | 1.01 | 0.999 | 0.972 | 1.01 | 1.03 | 0.977 | 1.01 | 1.03 | 1.03 | 0.974 | 1.08 | 1.01 | 1.03 | 0.985 | 1.04 | 1.01 | 0.915 | 0.917
15 | NCI-H1944 | 1.02 | 0.995 | 0.967 | 0.904 | 1 | 0.993 | 0.873 | 1.06 | 0.978 | 1.08 | 1.15 | 1.02 | 1.01 | 1.05 | 0.954 | 0.83 | 1.03 | 0.874 | 0.913
16 | EPLC-272H | 1.01 | 1.03 | 1.11 | 0.952 | 1.04 | 0.996 | 0.798 | 1.06 | 0.908 | 1.15 | 1.22 | 1.01 | 1.2 | 1.34 | 0.777 | 0.718 | 0.81 | 0.688 | 0.888
17 | EBC-1 | 0.912 | 0.94 | 1.14 | 0.935 | 0.987 | 0.977 | 1.02 | 1.1 | 0.976 | 0.448 | 0.528 | 0.433 | 0.453 | 0.358 | 0.1 | 0.107 | 0.102 | 0.112 | 0.0941
